Data on 3 compounds can be found in patent publication US20260138970A1, “MODULATORS OF THE CALCIUM SIGNALING CASCADE” (FONDAZIONE TELETHON ETS, priority 2022, published 2026).

In assay [1] the test system is protease-activated receptors. Description: Fluo-4 Ca2+ assay, SLIGR-NH2 stimulus, HEKR2 cells. It counts as cell-based. To be noted: SLIGR-NH2 4 μM; compounds 10 μM; FIG. 5C bottom. How it is done:
Experiments were performed using the microplate reader described for the HS-YFP assay. FRT and HEK293 cells were cultured until confluence in 96-well microplates (3603, Corning). Cells were washed 2 times with PBS (150 μl/wash) and then loaded for 1 h at 37° C. with 5 μM Fluo-4/AM (Thermo Fisher Scientific; catalog number: F23917) in PBS containing 10 mM glucose, 0.5 mM sulfinpyrazone, and 1% fetal bovine serum. After loading, cells were washed 2 times with PBS-glucose-sulfinpyrazone (150 μl/wash) and incubated for 20 min at 37° C. with 60 μl of PBS plus 10 mM glucose and 0.5 mM sulfinpyrazone containing compounds of interest at 10 μM final concentration or vehicle. Each well was assayed individually. Fluo-4 fluorescence (500 nm excitation, 535 nm emission) was detected every 200 ms for 16-40 s. Two seconds after the start of fluorescence recording, the reader automatically injected 165 μl of a modified PBS containing 136 mM KCl instead of NaCl. This solution also contained 10 mM glucose, 0.5 mM sulfinpyrazone, and UTP or SLIGR-NH2 (CAS #171436-38-7) at a final concentration that depended on the specific cell type. […] The Fluo-4 fluorescence increase was quantified using a procedure compiled in Microsoft Excel after background subtraction and normalization for the initial value measured before UTP addition.

Assay [2] relates to protease-activated and bradykinin receptors. To be noted: protease-activated and bradykinin receptor agonists; cited from earlier work.
In another assay the target is T1, R269W ITPR1 (Homo sapiens, UniProt Q14643, R269W).
T1 construct: expressed in transfected cells
In words: IP3 uncaging assay, HEK293 cells expressing R269W-ITPR1. In kind it is cell-based. The note with it: compound 10 μM; tetracycline-treated; FIG. 6D. How it is done:
HEK293 cells stably transfected with tetracycline-inducible expression of wild type or mutant (R269W or T267M) ITPR1, kindly provided by Prof. S. R. Wayne Chen (University of Calgary; ref. 14), were cultured in a mixture of Dulbecco's Modified Eagle Medium (DMEM, high glucose version) and Ham's F12 (1:1) and supplemented with 10% fetal bovine serum, 2 mM L-glutamine, 100 U/ml penicillin and 100 μg/ml streptomycin. Cells were selected with 0.5 mg/ml hygromycin B and induced with 1 μg/ml tetracycline.
(§1) FRT and HEK293 cells were cultured in μ-Plate96 microplates (Ibidi) at subconfluent condition. Cells were washed 2 times with PBS (150 μl/wash) and then loaded for 45 min at 37° C. with 1 μM ci-IP3/PM (Tocris; catalog number: 6210/10U) and 5 μM Fluo-4/AM (Thermo Fisher Scientific) in PBS containing 10 mM glucose, 0.5 mM sulfinpyrazone and 1% fetal bovine serum. After 45 min, cells were further incubated for 1 h at 37° C. with a fresh PBS solution containing Fluo-4/AM, glucose, sulfinpyrazone, serum, but no ci-IP3/PM. […] Analysis was performed with MetaFluor software, by quantifying Fluo-4 fluorescence in manually selected single cell region of interest (ROI). […] After background subtraction, fluorescence traces were normalized for the initial value.

The next assay addresses ITPR1 (Homo sapiens, UniProt Q14643). Description: ci-IP3/PM uncaging assay in HEK293 cells with selective expression of ITPR1 (HEKR1). It counts as cell-based. Also on record: host or cells: HEKR1 (HEK293). To be noted: compounds 10 μM; FIG. 4B. How it is done:
HEK293 cells totally devoid of ITPR expression (HEK3XKO) or with selective expression of ITPR1 (HEKR1), ITPR2 (HEKR2), or ITPR3 (HEKR3), obtained by selective gene ablation, were purchased from Kerafast (catalog number: EURO30, EURO31, EURO32, EURO33) and cultured in a mixture of Dulbecco's Modified Eagle Medium (DMEM, high glucose version) and Ham's F12 (1:1) and supplemented with 10% fetal bovine serum, 2 mM L-glutamine, 100 U/ml penicillin and 100 μg/ml streptomycin.
as §1

T1 sequence (Q14643 whole entry R269W): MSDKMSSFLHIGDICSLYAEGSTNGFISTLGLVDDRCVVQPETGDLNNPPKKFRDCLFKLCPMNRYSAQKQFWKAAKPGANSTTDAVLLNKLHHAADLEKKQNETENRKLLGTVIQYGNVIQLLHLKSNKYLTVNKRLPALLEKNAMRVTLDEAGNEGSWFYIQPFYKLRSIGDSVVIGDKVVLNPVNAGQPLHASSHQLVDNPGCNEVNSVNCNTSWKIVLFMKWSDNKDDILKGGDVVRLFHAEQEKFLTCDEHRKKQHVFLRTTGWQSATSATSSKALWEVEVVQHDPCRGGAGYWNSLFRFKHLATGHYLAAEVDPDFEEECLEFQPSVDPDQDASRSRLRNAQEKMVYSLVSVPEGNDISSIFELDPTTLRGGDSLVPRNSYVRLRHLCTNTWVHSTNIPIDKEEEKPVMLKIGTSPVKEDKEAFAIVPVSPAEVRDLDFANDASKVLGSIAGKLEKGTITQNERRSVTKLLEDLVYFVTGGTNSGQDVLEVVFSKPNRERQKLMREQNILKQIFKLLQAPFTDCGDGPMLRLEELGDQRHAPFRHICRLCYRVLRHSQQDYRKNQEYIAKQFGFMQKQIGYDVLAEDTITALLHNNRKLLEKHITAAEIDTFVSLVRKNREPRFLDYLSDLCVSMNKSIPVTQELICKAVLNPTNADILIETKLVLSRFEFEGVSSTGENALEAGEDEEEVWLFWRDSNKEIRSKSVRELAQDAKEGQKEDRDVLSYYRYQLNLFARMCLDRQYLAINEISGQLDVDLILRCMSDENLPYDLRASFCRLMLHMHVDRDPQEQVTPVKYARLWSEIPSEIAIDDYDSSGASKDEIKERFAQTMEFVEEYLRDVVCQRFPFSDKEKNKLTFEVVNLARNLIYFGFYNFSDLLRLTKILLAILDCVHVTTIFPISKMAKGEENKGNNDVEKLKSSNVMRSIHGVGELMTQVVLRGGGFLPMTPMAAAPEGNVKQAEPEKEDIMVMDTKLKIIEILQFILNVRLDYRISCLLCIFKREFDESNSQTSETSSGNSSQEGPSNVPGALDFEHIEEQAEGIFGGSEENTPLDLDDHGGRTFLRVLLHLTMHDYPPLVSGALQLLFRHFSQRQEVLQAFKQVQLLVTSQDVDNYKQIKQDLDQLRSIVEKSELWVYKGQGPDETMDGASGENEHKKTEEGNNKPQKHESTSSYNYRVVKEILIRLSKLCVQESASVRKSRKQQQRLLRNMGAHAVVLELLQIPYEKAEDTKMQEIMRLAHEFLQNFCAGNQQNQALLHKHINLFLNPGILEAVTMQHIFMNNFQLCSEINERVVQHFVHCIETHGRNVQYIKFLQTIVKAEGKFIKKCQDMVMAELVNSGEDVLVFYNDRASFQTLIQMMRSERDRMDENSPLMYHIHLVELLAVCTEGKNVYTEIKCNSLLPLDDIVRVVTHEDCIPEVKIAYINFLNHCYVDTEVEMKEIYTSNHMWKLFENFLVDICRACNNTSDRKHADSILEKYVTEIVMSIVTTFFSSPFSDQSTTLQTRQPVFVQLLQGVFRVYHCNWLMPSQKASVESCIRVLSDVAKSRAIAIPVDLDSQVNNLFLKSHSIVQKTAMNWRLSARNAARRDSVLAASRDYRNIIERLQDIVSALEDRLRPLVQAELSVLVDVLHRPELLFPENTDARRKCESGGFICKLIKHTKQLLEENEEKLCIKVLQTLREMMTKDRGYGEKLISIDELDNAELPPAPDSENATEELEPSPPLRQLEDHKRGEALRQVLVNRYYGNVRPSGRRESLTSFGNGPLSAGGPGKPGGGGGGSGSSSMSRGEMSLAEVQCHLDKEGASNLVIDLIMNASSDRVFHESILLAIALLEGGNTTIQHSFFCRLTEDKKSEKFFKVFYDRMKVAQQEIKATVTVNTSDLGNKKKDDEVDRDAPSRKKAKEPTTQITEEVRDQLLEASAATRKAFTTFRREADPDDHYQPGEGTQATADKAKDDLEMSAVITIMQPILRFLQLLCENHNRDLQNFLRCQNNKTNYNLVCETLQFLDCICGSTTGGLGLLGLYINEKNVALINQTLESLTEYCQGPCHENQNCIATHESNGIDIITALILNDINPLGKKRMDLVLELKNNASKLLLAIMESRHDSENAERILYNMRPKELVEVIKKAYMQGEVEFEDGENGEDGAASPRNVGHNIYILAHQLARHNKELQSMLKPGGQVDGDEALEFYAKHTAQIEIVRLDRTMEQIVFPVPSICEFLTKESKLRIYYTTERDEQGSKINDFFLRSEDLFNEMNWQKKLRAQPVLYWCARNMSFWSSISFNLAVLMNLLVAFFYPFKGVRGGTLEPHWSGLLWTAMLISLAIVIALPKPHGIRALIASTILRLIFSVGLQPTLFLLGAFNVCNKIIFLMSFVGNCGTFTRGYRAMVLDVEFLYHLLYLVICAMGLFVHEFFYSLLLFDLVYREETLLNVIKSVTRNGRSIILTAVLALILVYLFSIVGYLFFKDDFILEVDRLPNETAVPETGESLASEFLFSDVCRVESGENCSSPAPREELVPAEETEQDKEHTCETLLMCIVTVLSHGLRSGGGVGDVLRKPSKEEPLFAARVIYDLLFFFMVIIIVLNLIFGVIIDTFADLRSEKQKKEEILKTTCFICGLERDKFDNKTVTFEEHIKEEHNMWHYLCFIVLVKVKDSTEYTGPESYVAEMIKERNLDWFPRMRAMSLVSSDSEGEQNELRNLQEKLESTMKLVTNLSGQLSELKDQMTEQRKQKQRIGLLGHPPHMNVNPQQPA

Turning to `OCc1ccccc1CN(Cc1ccnc(N2CCCC2)n1)c1ccc(F)cc1` [ARN4550, [2-[[4-Fluoro-N-[(2-pyrrolidin-1-ylpyrimidin-4-yl)methyl]anilino]methyl]phenyl]methanol], the “potentiation of SLIGR-NH2 stimulus (Ca2+ mobilization), HEKR2 cells” value in assay [1] is recorded as “only compound that potentiated”.

Take `CCc1cc(-c2cc(NCCCOc3ccccc3C)nc(N)n2)n(C)n1` [ARN7149, 6-(3-Ethyl-1-methyl-1H-pyrazol-5-yl)-N^4-(3-(o-tolyloxy)propyl)pyrimidine-2,4-diamine]: the “effectiveness by agonist inducing Ca2+ mobilization (UTP vs other GPCR agonists)” value in assay [2] was “only effective when Ca^2+ mobilization is induced by UTP”.

With `CCn1nc2c(c1C(=O)Nc1ccccc1OCC1CCCCO1)CCCC2` (stereo not shown) [ARN11391, 2-Ethyl-N-[2-(tetrahydropyran-2-ylmethoxy)phenyl]-4,5,6,7-tetrahydroindazole-3-carboxamide], the “Ca2+ mobilization elicited by IP3 uncaging, R269W-ITPR1” value at R269W ITPR1 was “significantly amplified”. On ITPR1, the “activity on Ca2+ mobilization by IP3 uncaging, cells with selective expression of ITPR1” value is recorded as “uniquely effective”.
